{
  "source": "patent US7439207B2",
  "about": "“2,6 substituted pyridine-3-carbonyl derivatives serving as plant protection agents having herbicidal action” (Bayer CropScience AG, priority 2002, dated 2008)",
  "key": {"[1]": {"experiment": "logP determination by HPLC on reversed-phase column (C 18), EEC Directive 79/831 Annex V.A8", "assay_type": "physicochemical", "settings": "reversed-phase HPLC column (C 18); printed in text without mark a) or b)", "description": "The logP values given in the table were determined in accordance with EEC Directive 79/831 Annex V.A8 by HPLC (High Performance Liquid Chromatography) using a reversed-phase column (C 18). Temperature: 43° C. (a) Mobile phases for the determination in the acidic range: 0.1% aqueous phosphoric acid, acetonitrile; linear gradient from 10% acetonitrile to 90% acetonitrile—corresponding measurement results in Table 1 are marked ^a). (b) Mobile phases for the determination in the neutral range: 0.01 molar aqueous phosphate buffer solution, acetonitrile; linear gradient from 10% acetonitrile to 90% acetonitrile—corresponding measurement results in Table 1 are marked ^b). Calibration was carried out using unbranched alkan-2-ones (having 3 to 16 carbon atoms) with known logP values (determination of the logP values by the retention times using linear interpolation between two successive alkanones)."}, "[2]": {"tested_on": "weeds", "experiment": "Post-emergence test (Example B), activity against weeds", "assay_type": "in vivo", "settings": "test plants of 5-15 cm sprayed, rated after three weeks", "description": "Post-Emergence Test • Solvent: 5 parts by weight of acetone • Emulsifier: 1 part by weight of alkylaryl polyglycol ether\n(§1) To produce a suitable preparation of active compound, 1 part by weight of active compound is mixed with the stated amount of solvent, the stated amount of emulsifier is added and the concentrate is diluted with water to the desired concentration.\nTest plants of a height of 5-15 cm are sprayed with the preparation of active compound such that the particular amounts of active compound desired are applied per unit area. The concentration of the spray liquor is chosen such that the particular amounts of active compound desired are applied in 1 000 1 l of water/ha.\nAfter three weeks, the degree of damage to the plants is rated in % damage in comparison to development of the untreated control.\nThe figures denote: • 0%=no effect (like untreated control) • 100%=total destruction"}, "[3]": {"tested_on": "weeds", "experiment": "Pre-emergence test (Example A), activity against weeds", "assay_type": "in vivo", "settings": "soil sprayed 24 hours after sowing, rated after three weeks", "description": "Pre-Emergence Test • Solvent: 5 parts by weight of acetone • Emulsifier: 1 part by weight of alkylaryl polyglycol ether\nas §1\nSeeds of the test plants are sown in normal soil. After 24 hours, the soil is sprayed with the preparation of active compound such that the particular amount of active compound desired is supplied per unit area. The concentration of active compound in the spray liquor is chosen such that the particular amount of active compound desired is applied in 1000 litres of water per hectare.\nAfter three weeks, the degree of damage to the plants is rated in % damage in comparison to the development of the untreated control. The figures denote: • 0%=no effect (like untreated control) • 100%=total destruction"}},
  "data": [
    {"smiles": "CN1CCN(Cc2nc(C(F)(F)F)ccc2C(=O)O)C1=O", "note": "[Example II-1, 6-trifluoromethyl-2-(3-methyl-2-oxoimidazolidin-1-ylmethyl)nicotinic acid]", "values": [
      {"measurement": "chromatographic logP", "setting": "[1]", "value": 1.62}
    ]},
    {"smiles": "CN1CCN(Cc2nc(C(F)(F)F)ccc2C(=O)C2C(=O)CCCC2=O)C1=O", "note": "[Example 1, 2-[2-(3-methyl-2-oxoimidazolidin-1-ylmethyl)-6-trifluoromethylpyridine-3-carbonyl]cyclohexane-1,3-dione]", "values": [
      {"measurement": "activity against weeds", "setting": "[2]", "value": "strong activity"},
      {"measurement": "activity against weeds", "setting": "[3]", "value": "strong activity"},
      {"measurement": "chromatographic logP", "setting": "[1]", "value": 2.14}
    ]}
  ]
}
